Experimental data taken from the supplement of paper PMC11208160.

Assay: recombinant UMI read abundance after kanamycin selection (control-corrected) (log10(CPM+1)); higher = more efficient recombination; extreme values may be limits of the assay; sequences stand for … in AGTGCAGAGAAAATCGGCCAGTTTTCTCTGCCTGCAGTCCGCATGCCGTGGGACCCCTTGGGTTCTAACCTGTTGCCTAGATTTATGCAGCGGACTGCCTTTCTCCCAAAGTGATAAACCGG…AGGTTGGTTTCACT; site = the 11-nt donor
How it was run: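 Two replicates each of selected and unselected plating were used in this pooled Escherichia coli screen of donor and donor-binding-loop pairs for the IS621 bridge recombinase. Selection was with IPTG (0.07 mM) and kanamycin. Counts of recombinant UMIs, amplified across the donor–target junction, were converted to CPM, averaged, scaled by control-derived factors and reported as log10(CPM+1).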
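Note: IS621 bridge recombinase in Escherichia coli cells against a fixed T5 target plasmid.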

Point of comparison: “CGATCATCATGGACCGGTTTTCCCGGTAATCCGTATTTGCT (site CGAAGATCTAG)”, “recombinant UMI read abundance (log10)” value 0. Against it:
- CGACGGTCATGGACCGGTTTTCCCGGTAATCCGTATTTGTC (site CGACGGTCTGA) — higher, 2.77
- CGACGTACATGGACCGGTTTTCCCGGTAATCCGTATTTGCT (site CGACGTACTAG) — higher, 2.45
- CGACGTACATGGACCGGTTTTCCCGGTAATCCGTATTTGCT (site CGCCGTACTAG) — within 0.2 log units, 0.0167
- CGACGTACATGGACCGGTTTTCCCGGTAATCCGTATTTGCT (site CGGCGTACTAG) — higher, 0.688
- CGACGTACATGGACCGGTTTTCCCGGTAATCCGTATTTGCT (site CGTCGTACTAG) — higher, 0.764
- CGACTTGCATGGACCGGTTTTCCCGGTAATCCGTATTTGAT (site CGACTTGCTAT) — higher, 2.39
- CGAGAGGCATGGACCGGTTTTCCCGGTAATCCGTATTTGGG (site CGAGAGGCTCC) — higher, 0.928
- CGAGCATCATGGACCGGTTTTCCCGGTAATCCGTATTTGCT (site CGAACATCTAG) — the same, 0
- CGAGCATCATGGACCGGTTTTCCCGGTAATCCGTATTTGCT (site CGACCATCTAG) — the same, 0
- CGAGCATCATGGACCGGTTTTCCCGGTAATCCGTATTTGCT (site CGAGCATCTAG) — higher, 1.79
- CGAGCATCATGGACCGGTTTTCCCGGTAATCCGTATTTGCT (site CGATCATCTAG) — the same, 0
- CGAGGACCATGGACCGGTTTTCCCGGTAATCCGTATTTGCG (site CGAGGACCTCA) — within 0.2 log units, 0.00306
- CGAGGACCATGGACCGGTTTTCCCGGTAATCCGTATTTGCG (site CGAGGACCTCC) — within 0.2 log units, 0.00697
- CGAGGACCATGGACCGGTTTTCCCGGTAATCCGTATTTGCG (site CGAGGACCTCG) — the same, 0
- CGAGGACCATGGACCGGTTTTCCCGGTAATCCGTATTTGCG (site CGAGGACCTCT) — within 0.2 log units, 0.00945
- CGAGGACCATGGACCGGTTTTCCCGGTAATCCGTATTTGGA (site CGAGGACCTAC) — the same, 0
- CGAGGACCATGGACCGGTTTTCCCGGTAATCCGTATTTGGA (site CGAGGACCTCC) — within 0.2 log units, 0.0127
- CGAGGACCATGGACCGGTTTTCCCGGTAATCCGTATTTGGA (site CGAGGACCTGC) — the same, 0
- CGAGGACCATGGACCGGTTTTCCCGGTAATCCGTATTTGGA (site CGAGGACCTTC) — within 0.2 log units, 0.0145
- CGAGGATCATGGACCGGTTTTCCCGGTAATCCGTATTTGGG (site CGAGGAACTCC) — within 0.2 log units, 0.0163
- CGAGGATCATGGACCGGTTTTCCCGGTAATCCGTATTTGGG (site CGAGGACCTCC) — within 0.2 log units, 0.00347
- CGAGGATCATGGACCGGTTTTCCCGGTAATCCGTATTTGGG (site CGAGGAGCTCC) — the same, 0
- CGAGGATCATGGACCGGTTTTCCCGGTAATCCGTATTTGGG (site CGAGGATCTCC) — higher, 1.15
- CGAGTATCATGGACCGGTTTTCCCGGTAATCCGTATTTGAT (site CGAGTATCTAT) — higher, 2.89
- CGAGTATCATGGACCGGTTTTCCCGGTAATCCGTATTTGAT (site CTAGTATCTGT) — the same, 0
- CGATAATCATGGACCGGTTTTCCCGGTAATCCGTATTTGCG (site CGATAATCTCG) — higher, 3.34
- CGATAATCATGGACCGGTTTTCCCGGTAATCCGTATTTGCG (site CGATCATCTAG) — the same, 0
- CGATCAACATGGACCGGTTTTCCCGGTAATCCGTATTTGTT (site CGATCAACTAA) — within 0.2 log units, 0.0564
- CGATCAACATGGACCGGTTTTCCCGGTAATCCGTATTTGTT (site CGATCCACTAA) — within 0.2 log units, 0.0118
- CGATCAACATGGACCGGTTTTCCCGGTAATCCGTATTTGTT (site CGATCGACTAA) — within 0.2 log units, 0.00905
- CGATCAACATGGACCGGTTTTCCCGGTAATCCGTATTTGTT (site CGATCTACTAA) — within 0.2 log units, 0.00984
- CGATCACCATGGACCGGTTTTCCCGGTAATCCGTATTTGAT (site CGATCACCTAT) — within 0.2 log units, 0.00371
- CGATCACCATGGACCGGTTTTCCCGGTAATCCGTATTTGAT (site CGATCATCTAG) — the same, 0
- CGATCATCATGGACCGGTTTTCCCGGTAATCCGTATTTGCT (site ACATCATCTAG) — higher, 1.28
- CGATCATCATGGACCGGTTTTCCCGGTAATCCGTATTTGCT (site AGAGCATCTAG) — the same, 0
- CGATCATCATGGACCGGTTTTCCCGGTAATCCGTATTTGCT (site AGATCAGCTAG) — within 0.2 log units, 0.00274
- CGATCATCATGGACCGGTTTTCCCGGTAATCCGTATTTGCT (site AGATCATCTAA) — within 0.2 log units, 0.00548
- CGATCATCATGGACCGGTTTTCCCGGTAATCCGTATTTGCT (site AGATCATCTAG) — higher, 2.17
- CGATCATCATGGACCGGTTTTCCCGGTAATCCGTATTTGCT (site AGATCATCTTG) — the same, 0
- CGATCATCATGGACCGGTTTTCCCGGTAATCCGTATTTGCT (site AGATCTTCTAG) — the same, 0
- CGATCATCATGGACCGGTTTTCCCGGTAATCCGTATTTGCT (site AGATTATCTAG) — within 0.2 log units, 0.017
- CGATCATCATGGACCGGTTTTCCCGGTAATCCGTATTTGCT (site AGGTCATCTAG) — the same, 0
- CGATCATCATGGACCGGTTTTCCCGGTAATCCGTATTTGCT (site CAAACATCTAG) — higher, 1.6
- CGATCATCATGGACCGGTTTTCCCGGTAATCCGTATTTGCT (site CAATCACCTAG) — the same, 0
- CGATCATCATGGACCGGTTTTCCCGGTAATCCGTATTTGCT (site CAATCATCTAG) — higher, 1.62
- CGATCATCATGGACCGGTTTTCCCGGTAATCCGTATTTGCT (site CAATCATCTAT) — the same, 0
- CGATCATCATGGACCGGTTTTCCCGGTAATCCGTATTTGCT (site CAATCATCTGG) — the same, 0
- CGATCATCATGGACCGGTTTTCCCGGTAATCCGTATTTGCT (site CAATCGTCTAG) — within 0.2 log units, 0.00456
- CGATCATCATGGACCGGTTTTCCCGGTAATCCGTATTTGCT (site CAATGATCTAG) — the same, 0
- CGATCATCATGGACCGGTTTTCCCGGTAATCCGTATTTGCT (site CATTCATCTAG) — higher, 1.44
- CGATCATCATGGACCGGTTTTCCCGGTAATCCGTATTTGCT (site CCAGCATCTAG) — within 0.2 log units, 0.0355
- CGATCATCATGGACCGGTTTTCCCGGTAATCCGTATTTGCT (site CCATCAGCTAG) — the same, 0
- CGATCATCATGGACCGGTTTTCCCGGTAATCCGTATTTGCT (site CCATCATCTAA) — the same, 0
- CGATCATCATGGACCGGTTTTCCCGGTAATCCGTATTTGCT (site CCATCATCTAG) — higher, 0.987
- CGATCATCATGGACCGGTTTTCCCGGTAATCCGTATTTGCT (site CCATCATCTTG) — the same, 0
- CGATCATCATGGACCGGTTTTCCCGGTAATCCGTATTTGCT (site CCATCTTCTAG) — the same, 0
- CGATCATCATGGACCGGTTTTCCCGGTAATCCGTATTTGCT (site CCATTATCTAG) — the same, 0
- CGATCATCATGGACCGGTTTTCCCGGTAATCCGTATTTGCT (site CCGTCATCTAG) — higher, 0.747
- CGATCATCATGGACCGGTTTTCCCGGTAATCCGTATTTGCT (site CGAACACCTAG) — the same, 0
- CGATCATCATGGACCGGTTTTCCCGGTAATCCGTATTTGCT (site CGAACATCTAG) — higher, 0.278
- CGATCATCATGGACCGGTTTTCCCGGTAATCCGTATTTGCT (site CGAACATCTAT) — within 0.2 log units, 0.00401
- CGATCATCATGGACCGGTTTTCCCGGTAATCCGTATTTGCT (site CGAACATCTGG) — the same, 0
- CGATCATCATGGACCGGTTTTCCCGGTAATCCGTATTTGCT (site CGAACGTCTAG) — within 0.2 log units, 0.00334
- CGATCATCATGGACCGGTTTTCCCGGTAATCCGTATTTGCT (site CGACAATCTAG) — higher, 0.437
- CGATCATCATGGACCGGTTTTCCCGGTAATCCGTATTTGCT (site CGACCAACTAG) — within 0.2 log units, 0.00386
- CGATCATCATGGACCGGTTTTCCCGGTAATCCGTATTTGCT (site CGACCATCTAC) — the same, 0
- CGATCATCATGGACCGGTTTTCCCGGTAATCCGTATTTGCT (site CGACCATCTAG) — higher, 2.55
